Data from patent publication US11767310B2, “Nicotinamide RIPK1 inhibitors” (AbbVie Inc., priority 2021, dated 2023).
Like-named read-outs stand apart in the source and are kept apart here.

What was measured:
Experiment in all cases: Kinase binding screen
Conditions in all cases: read-out: Percent Control at 100 nM Compound Concentration
[1] = target: ABL1(F317L)-phosphorylated (Homo sapiens (Human), UniProt P00519, F317L)
[2] = target: ABL1(Q252H)-phosphorylated (Homo sapiens (Human), UniProt P00519, Q252H)
[3] = target: AXL (Homo sapiens (Human), UniProt P30530)
[4] = target: BRSK1 (Homo sapiens (Human), UniProt Q8TDC3)
[5] = target: CASK (Homo sapiens (Human), UniProt O14936)
[6] = target: DCAMKL1 (Homo sapiens (Human), UniProt O15075)
DCAMKL1, sequence (O15075 whole entry, looked up): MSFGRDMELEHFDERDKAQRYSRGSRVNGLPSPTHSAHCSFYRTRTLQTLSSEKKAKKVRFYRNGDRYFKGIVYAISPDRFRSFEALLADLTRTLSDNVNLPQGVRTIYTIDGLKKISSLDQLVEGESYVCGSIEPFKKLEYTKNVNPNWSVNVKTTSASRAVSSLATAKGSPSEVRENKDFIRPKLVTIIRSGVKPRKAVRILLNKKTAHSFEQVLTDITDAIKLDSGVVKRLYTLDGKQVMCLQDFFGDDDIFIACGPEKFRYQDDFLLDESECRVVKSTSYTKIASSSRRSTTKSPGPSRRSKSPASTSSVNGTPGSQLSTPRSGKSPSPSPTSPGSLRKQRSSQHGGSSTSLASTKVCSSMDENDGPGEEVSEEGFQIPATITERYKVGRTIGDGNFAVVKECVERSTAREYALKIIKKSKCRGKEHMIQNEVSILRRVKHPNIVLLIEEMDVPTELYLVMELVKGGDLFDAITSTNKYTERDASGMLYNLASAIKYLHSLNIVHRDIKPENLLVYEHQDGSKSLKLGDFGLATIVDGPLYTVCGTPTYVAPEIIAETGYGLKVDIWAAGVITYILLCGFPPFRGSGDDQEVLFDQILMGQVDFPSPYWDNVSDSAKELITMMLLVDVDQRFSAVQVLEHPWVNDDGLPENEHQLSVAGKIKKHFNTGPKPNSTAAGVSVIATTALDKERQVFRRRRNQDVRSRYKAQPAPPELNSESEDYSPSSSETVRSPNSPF

[7] = target: DDR1 (Homo sapiens (Human), UniProt Q08345)
[8] = target: EIF2AK1 (Homo sapiens (Human), UniProt Q9BQI3)
EIF2AK1, sequence (Q9BQI3 whole entry): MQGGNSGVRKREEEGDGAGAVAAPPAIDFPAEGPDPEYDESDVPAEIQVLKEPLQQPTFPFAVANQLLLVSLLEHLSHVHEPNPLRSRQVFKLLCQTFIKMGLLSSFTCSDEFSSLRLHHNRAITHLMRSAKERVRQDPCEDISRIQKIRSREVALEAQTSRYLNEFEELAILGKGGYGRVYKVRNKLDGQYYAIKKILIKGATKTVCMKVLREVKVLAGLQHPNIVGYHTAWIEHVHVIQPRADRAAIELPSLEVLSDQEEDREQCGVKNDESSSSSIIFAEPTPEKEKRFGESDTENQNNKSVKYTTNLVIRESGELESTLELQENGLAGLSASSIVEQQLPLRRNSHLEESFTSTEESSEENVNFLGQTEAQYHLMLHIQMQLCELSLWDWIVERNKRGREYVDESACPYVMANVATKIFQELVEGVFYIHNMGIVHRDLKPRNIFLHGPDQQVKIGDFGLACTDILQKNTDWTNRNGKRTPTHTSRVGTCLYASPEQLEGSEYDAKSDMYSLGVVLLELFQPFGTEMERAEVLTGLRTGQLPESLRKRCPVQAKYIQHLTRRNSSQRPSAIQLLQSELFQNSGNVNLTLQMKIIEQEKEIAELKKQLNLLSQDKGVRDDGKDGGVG

[9] = target: EPHA8 (Homo sapiens (Human), UniProt P29322)
[10] = target: FLT3(R834Q) (Homo sapiens (Human), UniProt P36888, R834Q)
[11] = target: IKK-epsilon (Homo sapiens (Human), UniProt Q14164)
[12] = target: JAK2(JH1domain-catalytic) (Homo sapiens (Human), UniProt O60674)
JAK2(JH1domain-catalytic), sequence (O60674 849-1124): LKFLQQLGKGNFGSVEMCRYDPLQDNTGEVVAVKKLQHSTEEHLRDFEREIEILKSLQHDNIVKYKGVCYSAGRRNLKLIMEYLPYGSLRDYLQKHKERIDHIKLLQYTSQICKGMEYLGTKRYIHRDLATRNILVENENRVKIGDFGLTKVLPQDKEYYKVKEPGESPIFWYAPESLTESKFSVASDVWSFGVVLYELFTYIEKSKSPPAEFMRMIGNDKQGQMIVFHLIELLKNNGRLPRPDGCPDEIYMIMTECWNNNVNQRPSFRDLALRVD

[13] = target: LCK (Homo sapiens (Human), UniProt P06239)
[14] = target: MET (Homo sapiens (Human), UniProt P08581)
[15] = target: NEK3 (Homo sapiens (Human), UniProt P51956)
[16] = target: NEK6 (Homo sapiens (Human), UniProt Q9HC98)
NEK6, sequence (Q9HC98 whole entry): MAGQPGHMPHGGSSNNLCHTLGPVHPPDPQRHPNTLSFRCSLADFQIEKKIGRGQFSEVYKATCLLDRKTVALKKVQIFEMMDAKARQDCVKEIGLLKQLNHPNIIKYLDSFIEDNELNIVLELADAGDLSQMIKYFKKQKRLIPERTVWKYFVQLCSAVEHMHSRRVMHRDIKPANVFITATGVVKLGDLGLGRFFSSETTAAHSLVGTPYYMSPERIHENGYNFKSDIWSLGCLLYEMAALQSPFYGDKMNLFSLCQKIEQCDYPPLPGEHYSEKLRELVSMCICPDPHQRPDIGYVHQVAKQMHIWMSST

[17] = target: NEK9 (Homo sapiens (Human), UniProt Q8TD19)
[18] = target: PHKG1 (Homo sapiens (Human), UniProt Q16816)
PHKG1, sequence (Q16816 whole entry): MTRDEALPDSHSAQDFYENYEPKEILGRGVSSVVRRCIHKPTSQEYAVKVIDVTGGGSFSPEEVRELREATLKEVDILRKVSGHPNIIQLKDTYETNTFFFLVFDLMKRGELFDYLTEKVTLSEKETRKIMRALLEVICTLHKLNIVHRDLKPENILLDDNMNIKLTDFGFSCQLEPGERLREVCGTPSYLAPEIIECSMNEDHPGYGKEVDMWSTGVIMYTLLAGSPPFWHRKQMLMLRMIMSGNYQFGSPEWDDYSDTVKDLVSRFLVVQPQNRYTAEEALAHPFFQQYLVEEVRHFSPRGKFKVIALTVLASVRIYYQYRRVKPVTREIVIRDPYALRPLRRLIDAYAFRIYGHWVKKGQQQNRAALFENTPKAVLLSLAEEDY

[19] = target: PIK3C2B (Homo sapiens (Human), UniProt O00750)
[20] = target: PIK3CA(Q546K) (Homo sapiens (Human), UniProt P42336, Q546K)
PIK3CA(Q546K), sequence (P42336 whole entry Q546K): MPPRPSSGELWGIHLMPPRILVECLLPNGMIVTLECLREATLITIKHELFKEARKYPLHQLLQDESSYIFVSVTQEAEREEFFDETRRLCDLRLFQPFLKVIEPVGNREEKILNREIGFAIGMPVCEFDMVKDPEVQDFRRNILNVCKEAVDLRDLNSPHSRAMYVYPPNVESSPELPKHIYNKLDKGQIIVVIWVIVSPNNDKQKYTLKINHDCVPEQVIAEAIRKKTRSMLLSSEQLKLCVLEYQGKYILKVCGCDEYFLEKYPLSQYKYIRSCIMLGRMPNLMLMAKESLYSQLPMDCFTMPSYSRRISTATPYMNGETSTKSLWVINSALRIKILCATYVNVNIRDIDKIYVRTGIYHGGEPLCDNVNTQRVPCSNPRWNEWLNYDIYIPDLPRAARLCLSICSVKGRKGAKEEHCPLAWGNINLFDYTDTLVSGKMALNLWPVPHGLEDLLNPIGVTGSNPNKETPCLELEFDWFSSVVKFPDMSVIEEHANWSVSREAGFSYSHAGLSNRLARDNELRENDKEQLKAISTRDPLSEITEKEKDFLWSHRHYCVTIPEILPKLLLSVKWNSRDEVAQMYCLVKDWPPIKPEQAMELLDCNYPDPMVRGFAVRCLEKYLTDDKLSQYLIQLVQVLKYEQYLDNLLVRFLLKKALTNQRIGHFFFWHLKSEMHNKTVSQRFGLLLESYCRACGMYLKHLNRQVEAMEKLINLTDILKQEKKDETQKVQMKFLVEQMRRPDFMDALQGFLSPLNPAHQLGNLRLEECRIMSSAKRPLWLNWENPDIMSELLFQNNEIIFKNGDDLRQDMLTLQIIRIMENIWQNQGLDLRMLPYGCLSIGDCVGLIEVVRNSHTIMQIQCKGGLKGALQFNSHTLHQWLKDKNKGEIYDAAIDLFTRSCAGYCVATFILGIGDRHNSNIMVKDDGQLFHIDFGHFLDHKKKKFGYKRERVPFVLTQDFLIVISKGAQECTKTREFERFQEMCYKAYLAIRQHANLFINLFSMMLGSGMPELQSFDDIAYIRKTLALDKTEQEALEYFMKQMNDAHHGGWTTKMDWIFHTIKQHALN

[21] = target: PIM2 (Homo sapiens (Human), UniProt Q9P1W9)
[22] = target: PLK2 (Homo sapiens (Human), UniProt Q9NYY3)
[23] = target: RET(M918T) (Homo sapiens (Human), UniProt P07949, M918T)
[24] = target: RET(V804M) (Homo sapiens (Human), UniProt P07949, V804M)
RET(V804M), sequence (P07949 29-1114 V804M): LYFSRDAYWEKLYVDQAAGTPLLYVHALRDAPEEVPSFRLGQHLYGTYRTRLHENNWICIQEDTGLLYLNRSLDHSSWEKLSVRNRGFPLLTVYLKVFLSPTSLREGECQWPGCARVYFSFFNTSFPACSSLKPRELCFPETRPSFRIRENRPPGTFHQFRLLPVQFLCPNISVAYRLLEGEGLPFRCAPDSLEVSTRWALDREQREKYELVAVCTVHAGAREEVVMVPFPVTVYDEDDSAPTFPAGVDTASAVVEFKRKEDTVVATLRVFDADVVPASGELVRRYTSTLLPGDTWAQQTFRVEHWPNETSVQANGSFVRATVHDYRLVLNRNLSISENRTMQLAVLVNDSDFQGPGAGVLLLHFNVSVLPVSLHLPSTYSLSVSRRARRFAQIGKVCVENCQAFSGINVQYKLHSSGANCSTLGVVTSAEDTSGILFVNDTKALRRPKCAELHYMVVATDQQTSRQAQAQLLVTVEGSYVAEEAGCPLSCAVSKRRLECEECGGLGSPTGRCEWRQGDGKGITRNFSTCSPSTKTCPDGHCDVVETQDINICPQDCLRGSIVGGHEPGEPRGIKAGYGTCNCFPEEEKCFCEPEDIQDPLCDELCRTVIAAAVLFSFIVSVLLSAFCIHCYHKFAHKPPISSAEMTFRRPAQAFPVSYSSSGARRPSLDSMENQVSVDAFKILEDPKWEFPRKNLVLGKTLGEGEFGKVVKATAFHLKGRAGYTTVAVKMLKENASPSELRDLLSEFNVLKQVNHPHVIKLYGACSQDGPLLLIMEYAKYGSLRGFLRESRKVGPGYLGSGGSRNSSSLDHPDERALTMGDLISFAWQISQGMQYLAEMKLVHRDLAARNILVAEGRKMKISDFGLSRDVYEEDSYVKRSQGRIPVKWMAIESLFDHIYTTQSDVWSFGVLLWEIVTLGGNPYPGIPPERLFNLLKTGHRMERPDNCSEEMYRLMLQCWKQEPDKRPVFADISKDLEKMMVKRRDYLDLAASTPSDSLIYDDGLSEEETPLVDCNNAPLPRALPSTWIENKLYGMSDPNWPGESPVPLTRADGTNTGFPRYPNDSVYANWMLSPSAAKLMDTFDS

[25] = target: RSK2(Kin.Dom.2-C-terminal) (Homo sapiens (Human), UniProt P51812)
RSK2(Kin.Dom.2-C-terminal), sequence (P51812 422-679): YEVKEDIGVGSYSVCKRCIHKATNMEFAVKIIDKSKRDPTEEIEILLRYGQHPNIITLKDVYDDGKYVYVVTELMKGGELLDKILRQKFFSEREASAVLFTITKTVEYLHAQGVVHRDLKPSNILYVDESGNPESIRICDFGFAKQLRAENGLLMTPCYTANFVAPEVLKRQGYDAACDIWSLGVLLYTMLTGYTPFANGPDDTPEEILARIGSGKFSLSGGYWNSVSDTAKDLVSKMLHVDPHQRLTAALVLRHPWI

[26] = target: RSK4(Kin.Dom.2-C-terminal) (Homo sapiens (Human), UniProt Q9UK32)
RSK4(Kin.Dom.2-C-terminal), sequence (Q9UK32 426-683): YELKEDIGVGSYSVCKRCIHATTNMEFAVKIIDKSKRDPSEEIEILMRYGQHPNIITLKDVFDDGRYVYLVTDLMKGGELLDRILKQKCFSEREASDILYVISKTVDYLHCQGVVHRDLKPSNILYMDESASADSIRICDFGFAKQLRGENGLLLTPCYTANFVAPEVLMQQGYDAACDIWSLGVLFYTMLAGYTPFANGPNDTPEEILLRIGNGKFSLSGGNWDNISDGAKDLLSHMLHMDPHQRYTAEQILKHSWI

[27] = target: STK39 (Homo sapiens (Human), UniProt Q9UEW8)
[28] = target: WNK2 (Homo sapiens (Human), UniProt Q9Y3S1)

Measured: remaining activity at 0.1 µM

CN(C[C@@H](O)Cc1ccccc1)C(=O)c1cncc(C#Cc2cnn(C(F)F)c2)c1 [Example 2, (S)-5-((1-(difluoromethyl)-1H-pyrazol-4-yl)ethynyl)-N-(2-hydroxy-3-phenylpropyl)-N-methylnicotinamide]
96%: [15]; NEK3 | [20]; PIK3CA(Q546K)
98%: [22]; PLK2
99%: [2]; ABL1(Q252H)-phosphorylated | [4]; BRSK1 | [5]; CASK | [9]; EPHA8
100%: [3]; AXL | [6]; DCAMKL1 | [7]; DDR1 | [8]; EIF2AK1 | [10]; FLT3(R834Q) | [11]; IKK-epsilon | [12]; JAK2(JH1domain-catalytic) | [13]; LCK | [14]; MET | [16]; NEK6 | [17]; NEK9 | [18]; PHKG1 | [19]; PIK3C2B | [23]; RET(M918T) | [24]; RET(V804M) | [25]; RSK2(Kin.Dom.2-C-terminal) | [26]; RSK4(Kin.Dom.2-C-terminal) | [27]; STK39 | [28]; WNK2
82%: [1]; ABL1(F317L)-phosphorylated
95%: [21]; PIM2

CN(C[C@H](Cc1ccccc1)OP(=O)(O)O)C(=O)c1cncc(C#Cc2cnn(C(F)F)c2)c1 [Example 19, (S)-1-(5-((1-(difluoromethyl)-1H-pyrazol-4-yl)ethynyl)-N-methylnicotinamido)-3-phenylpropan-2-yl dihydrogen phosphate]
96%: [3] | [8] | [15]
99%: [2] | [4]
94%: [5] | [11]
100%: [6] | [7] | [9] | [10] | [12] | [14] | [16] | [17] | [18] | [19] | [21] | [23] | [24] | [25] | [26] | [27] | [28]
91%: [22]
95%: [13]
88%: [1] | [20]
